ChEMBL document CHEMBL5244223, “l,8-Naphthalimide based DNA intercalators and anticancer agents. A systematic review from 2007 to 2017” (Eur J Med Chem, 2018)
Values after ≈ are worked out from the molar mass of the structure shown.

Tests used:
MCF7 = assay: Cytotoxicity against human MCF7 cells assessed as cell growth inhibition by CCK-8 assay; assay type: functional, cell-based
Shigella dysenteriae = assay: Antibacterial activity against Shigella dysenteriae assessed as inhibition of bacterial growth by two-fold serial dilution assay; assay type: functional
Proteus vulgaris = assay: Antibacterial activity against Proteus vulgaris assessed as inhibition of bacterial growth by two-fold serial dilution assay; assay type: functional
Sarcoma-180 [1] = assay: Antitumor activity against mouse Sarcoma-180 cells xenografted in Swiss mouse assessed as T/C ratio at 0.5 mg/kg, po daily measured upto 7 days; assay type: functional; conditions: time <= 7 day
Sarcoma-180 [2] = assay: Inhibition of RNA synthesis in mouse Sarcoma-180 cells at 8 uM incubated for 60 mins by [3H]-uridine incorporation based scintillation counter analysis; assay type: functional; conditions: Sarcoma-180, 1 h
Sarcoma-180 [3] = assay: Inhibition of DNA synthesis in mouse Sarcoma-180 cells at 8 uM incubated for 30 mins by [3H]-thymidine incorporation based scintillation counter analysis; assay type: functional; conditions: Sarcoma-180, 0.5 h
Ehrlich = assay: Antitumor activity against mouse EAC cell xenografted in Swiss mouse assessed as T/C ratio at 25 mg/kg, po daily measured upto 7 days; assay type: functional; conditions: time <= 7 day
Sarcoma-180 [4] = assay: Antitumor activity against mouse Sarcoma-180 cells xenografted in Swiss mouse assessed as T/C ratio at 25 mg/kg, po daily measured upto 7 days; assay type: functional; conditions: time <= 7 day

## CCNc1ccc2c3c(cccc13)C(=O)N(CC(O)Cn1c([N+](=O)[O-])cnc1C)C2=O (stereo not given)
MCF7
  IC50: 8.51 µM
Shigella dysenteriae
  MIC: 10 µM (≈ 4.23 µg/mL)
Proteus vulgaris
  MIC: 2 µM (≈ 0.847 µg/mL)

## CN(C)CCN1C(=O)c2cccc3cc([N+](=O)[O-])cc(c23)C1=O [MITONAFIDE]
Sarcoma-180 [1]
  T/C: 187%
Sarcoma-180 [2]
  inhibition at 8 µM: 94%
Sarcoma-180 [3]
  inhibition at 8 µM: 99%

## O=NN(CCCl)C(=O)NC1CCCCC1 [LOMUSTINE]
Sarcoma-180 [2]
  inhibition at 8 µM: 90%
Ehrlich
  T/C: >240%
Sarcoma-180 [4]
  T/C: >279%
Sarcoma-180 [3]
  inhibition at 8 µM: 64%
